Patent US20240150755A1, “MODULATING REGULATORY T CELL FUNCTION IN AUTOIMMUNE DISEASE AND CANCER” (Salk Institute for Biological Studies, priority 2021, published 2024)
“Also recorded” adds a separate entry of the source.

Assays:
Type in all cases: cell-based, mouse
Foxp3 = Foxp3 expression (MFI) in Treg cells by flow cytometry
Excerpt: (§1) For large scale Treg culture, Tregs were first expanded in Rosa-Cas9/Foxp3^Thy1.1 mice by injecting IL-2:IL-2 antibody immune complex according protocol described in Webster et. al (J Exp Med 206, 751-760, 2009). Spleen and lymph node Treg cells were labeled with PE-conjugated Thy1.1 antibody and isolated by magnetic selection using anti-PE microbeads (Mitenyl #130-048-801). All isolated Treg cells were activated by plate bound anti-CD3 and anti-CD28 antibodies and cultured with X-VIVO® 20 media (LONZA #04-448Q) supplemented by 1× Pen/Strep, 1× Sodium pyruvate, 1× HEPES, 1× GlutaMax™, 55 μM beta-mercaptoethanol in the presence of IL-2 at 500 units/mL. For experiments with Brd9 degradation, Treg cells were treated at day 0 with 2.5 μM dBRD9 (Tocris #6606) and cultured for four days for RNA- and ChIP-seq and 0.16-10 μM treated at day 0 and cultured dBRD9 for four days for Foxp3 MFI, cell viability and cell proliferation assays. Live cells were enriched by Ficoll-Paque® 1.084 (GE Health 17-5446-02) for RNA-seq and ChIP-seq.
HEK293T cells were seeded in 6-wells plate at 0.5 million cells per 2 mL DMEM media supplemented by 10% FBS, 1% Pen/Strep, 1× GlutaMax®, 1× Sodium Pyruvate, 1× HEPES, and 55 μM beta-mercaptoethanol. […] Transduced cells were analyzed for Foxp3 and cytokine expression in eBioscience® Fix/Perm buffer (eBioscience #00-5523-00) using flow cytometry. […]

Treg cells [1] = assay: Cell viability by Ghost Dye in Treg cells; conditions: dBRD9 in increasing concentrations for 4 days
Excerpt: as §1

Treg cells [2] = assay: Cell division by CellTrace dilution in Treg cells; conditions: dBRD9 in increasing concentrations for 4 days
Excerpt: as §1

Foxp3-bound sites = assay: Foxp3 ChIP-seq in Treg cells
Excerpt: as §1
(§2) Treg cells were collected and cross-linked first in 3 mM disuccinimidyl glutarate (DSG) in 1×PBS for thirty minutes then in 1% formaldehyde for another ten minutes, both at RT, for chromatin binding protein ChIP or in 1% formaldehyde only for histone modification ChIP. After quenching the excess cross-linker with a final concentration of 125 mM glycine, the cells were washed in 1× PBS, pelleted, flash-frozen in liquid nitrogen, and stored at −80° C. Cell pellets were thawed on ice and incubated in lysis solution (50 mM HEPES-KOH pH 8, 140 mM NaCl, 1 mM EDTA, 10% glycerol, 0.5% NP40, 0.25% Triton X-100) for ten minutes. The isolated nuclei were washed with wash solution (10 mM Tris-HCl pH 8, 1 mM EDTA, 0.5 mM EGTA, 200 mM NaCl) and shearing buffer (0.1% SDS, 1 mM EDTA, 10 mM Tris-HCl pH 8) then sheared in a Covaris® E229 sonicator for ten minutes to generate DNA fragments between ˜200-1000 base pairs (bp). After clarification of insoluble material by centrifugation, the chromatin was immunoprecipitated overnight at 4° C. with antibodies against Foxp3, Smarca4, Brd9, Phf10 or H3K27ac. The next day, the antibody bound DNA was incubated with Protein A+G Dynabeads™ (Invitrogen) in ChIP buffer (50 mM HEPES-KOH pH 7.5, 300 mM NaCl, 1 mM EDTA, 1% Triton X-100, 0.1% DOC, 0.1% SDS), washed and treated with Proteinase K and RNase A. Cross-linking was reversed by incubation at 55° C. for two and a half hours. Purified ChIP DNA was used for library generation (NuGen Ovation® Ultralow Library System V2) according to manufacturer's instructions for subsequent sequencing.
Single-end 50 bp or paired-end 42 bp reads were aligned to mouse genome mm10 using STAR alignment tool (V2.5) (Dobin et al., Bioinformatics 29:15-21, 2013). ChIP-Seq peaks were called using findPeaks within HOMER using parameters for histone (-style histone) or transcription factor (-style factor) (homer.ucsd.edu/homer/index.html). Peaks were called when enriched >two-fold over input and >four-fold over local tag counts, with FDR 0.001. For histone ChIP, peaks within a 1000 bp range were stitched together to form regions. Differential ChIP peaks were found by merging peaks from control and experiment groups and called using getDiffExpression.pl with fold change ≥1.5 or ≤−1.5, Poisson p value<0.0001.

Treg cells [3] = assay: In vitro Treg suppression assay
Excerpt: Treg cells were transduced by retrovirus expressing sgRNA targeting gene of interest and cultured in X-VIVO® complete media supplemented with IL-2 (500 U/ml). Four days after transduction, transduced cells were […] a fluorescence-activated cell sorter (FACS). CD45.1+ naive CD4 T cells (CD4^+CD25^−CD44^loCD62^hi) were labeled with CellTrace™ Violet (Thermo Fisher Scientific #C34571) in different ratio in the presence of irradiated T cell depleted spleen cells as antigen-presenting cells (APC). Three days later, Treg suppression function was measured by the percentage of non-dividing cells within the CD45.1^+ effector T cell population. For dBRD9 treatment experiment, dBRD9 was first dissolved in DMSO (10 mM stock) and added into Treg:Teff:APC mixture at 2.5 μM. For Foxp3 overexpression rescue experiment, Treg cells were first transduced with sgNT or sgBrd9 at 24 hour post-activation, and then transduced with MIGR empty vector or MIGR-Foxp3 at 48 hour post-activation. Double transduced Treg cells were FACS sorted on day 4 based on NGFR+ and GFP+ markers and then mixed with CellTrace™ labeled effector T cells in the presence of APC. Treg suppression readout was measured after three days of co-culture.

Foxp3 target genes = assay: RNA-seq and gene set enrichment analysis in Treg cells; conditions: sgRNA transduced Treg cells vs sgNT
Excerpt: as §1
RNA from 1-3×10^6 cells was extracted and purified with TRIzol™ reagent (Thermo Fisher) according to manufacturer's instructions. RNA-seq libraries were prepared using Illumina® TruSeq® Stranded mRNA kit following manufacturer's instructions with 5 μg of input RNA.
Single-end 50 bp reads were aligned to the mouse genome mm10 using STAR alignment tool (V2.5) (Dobin et al., Bioinformatics 29:15-21, 2013). RNA expression was quantified as raw integer counts using analyzeRepeats.pl in HOMER (Heinz et al., Mol Cell 38:576-589, 2010) using the following parameters: -strand both -count exons -condenseGenes -noadj. To identify differentially expressed genes, getDiffExpression.pl in HOMER was used, which uses the DESeq2R package to calculate the biological variation within replicates. Cut-offs were set at log 2 FC=0.585 and FDR at 0.05 (Benjamin-Hochberg). Principal Component Analysis (PCA) was performed with the mean of transcript per million (TPM) values using Cluster 3.0 with the following filter parameters: at least one observation with absolute value equal or greater than two and gene vector of four. TPM values were log transformed then centered on the mean.
GSEA software (Mootha et al., Nat Genet 34:267-273, 2003; Subramanian et al., PNAS 102:15545-15550, 2005) was used to perform the analyses with the following parameters: number of permutations=1000; enrichment statistic=weighted; and metric for ranking of genes=difference of classes (Input RNA-seq data was log-transformed). For GSEA analysis, input RNA-seq data contained the normalized log-transformed reads of the 1,325 differentially expressed genes (DEGs) in sgFoxp3/sgNT Treg cells. The compiled gene list included GSEA Gene Ontology, Immunological Signature, Curated Gene, and the up and down DEGs in sgBrd9/sgNT Treg cells.
For gene expression analysis in FIG. 42F, Foxp3 ChIP-seq tags were quantified at the union of sites bound by Foxp3 in sgNT and sgBrd9 using the annotatePeaks.pl command in HOMER with size-given and each site was annotated to a gene by mapping to the nearest TSS. Sites were ranked from least to largest Foxp3 ChIP-seq Log2FC in sgBrd9 vs sgNT and divided into quartiles. Gene expression for the genes in the top and bottom quartiles (Brd9-dependent and -independent, respectively) was then plotted using RNA-seq data from Treg cells transduced with sgBrd9, sgSmarcd1, or sgPbrm1 compared to sgNT. […]

H3K27ac = H3K27ac ChIP-seq in Treg cells; conditions: sgRNA transduced Treg cells
Method: as §2, with “The next day, the antibody bound DNA was incubated with Protein A+G Dynabeads™ (Invitrogen) in ChIP buffer (50 mM HEPES-KOH pH 7.5, 300 mM NaCl, 1 mM EDTA, 1% Triton X-100, 0.1% DOC, 0.1% SDS), washed and treated with Proteinase K and RNase A. Cross-linking was reversed by incubation at 55° C. for two and a half hours. Purified ChIP DNA was used for library generation (NuGen Ovation® Ultralow Library System V2) according to manufacturer's instructions for subsequent sequencing.” left out
Single-end 50 bp or paired-end 42 bp reads were aligned to mouse genome mm10 using STAR alignment tool (V2.5) (Dobin et al., Bioinformatics 29:15-21, 2013). […]

Compound: COc1cc(-c2cn(C)c(=O)c3cnccc23)cc(OC)c1CN(C)CC(=O)NCCOCCOCCNc1cccc2c1C(=O)N(C1CCC(=O)NC1=O)C2=O (stereo not shown) [dBRD9]
- Foxp3 expression (MFI) (Foxp3; Treg cells, 0.16-10 μM dBRD9 for 4 days vs DMSO): significantly decreased Foxp3 expression in Treg cells in a concentration-dependent manner; also recorded: reduces Foxp3 expression
- cell viability (Treg cells [1]): without affecting cell viability
- cell proliferation (Treg cells [2]): without affecting cell viability or proliferation; also recorded: without affecting cell viability and proliferation
- Foxp3 binding to chromatin (Foxp3-bound sites; Treg cells, 2.5 μM dBRD9 for 4 days vs DMSO): diminished Foxp3 binding to chromatin at a subset of Foxp3 target sites
- T effector responses (Treg cells [3]; dBRD9 2.5 μM, in vitro): without impairing T effector responses
- Treg suppressor function (Treg cells [3]; dBRD9 added to Treg:Teff:APC mixture at 2.5 μM): significantly and specifically compromised Treg suppressor function; also recorded: reduces Treg suppressor activity

Compound: sgPbrm1: sgRNA targeting Pbrm1, AAAACACTTGCATAACGATG (SEQ ID NO: 8) (expressed or natural sequence)
- Foxp3 binding at CNS2/CNS0 (Foxp3-bound sites; sgRNA transduced Treg cells): subtle increase in Foxp3 binding at CNS2/CNS0
- Foxp3 binding at a subset of Foxp3 sites (Brd9-dependent sites) (Foxp3-bound sites; sgRNA transduced Treg cells, FC1.5, Poisson p<0.0001): did not change

Compound: sgSmarcd1: sgRNA targeting Smarcd1, CAATCCGGCTAAGTCGGACG (SEQ ID NO: 15) (expressed or natural sequence)
- gene expression of Brd9-dependent vs Brd9-independent Foxp3 target genes (Foxp3 target genes): significantly more affected

Compound: sgFoxp3: sgRNA targeting Foxp3, TCTACCCACAGGGATCAATG (SEQ ID NO: 1) (expressed or natural sequence)
- Foxp3 binding at CNS2/CNS0 (Foxp3-bound sites; sgRNA transduced Treg cells): dramatic reduction in Foxp3 binding at CNS2/CNS0
- Foxp3 binding sites at which Foxp3 binding was lost (Foxp3-bound sites; sgRNA transduced Treg cells, genome-wide): over 85%
- genes with increased expression (Foxp3 target genes; RNA-seq): 532 genes
- genes with reduced expression (Foxp3 target genes; RNA-seq): 793 genes
- H3K27ac at Brd9-dependent Foxp3 sites (H3K27ac): reduction in H3K27ac

Compound: sgUsp22: sgRNA targeting Usp22, GCCATCGACCTGATGTACGG (SEQ ID NO: 18) (expressed or natural sequence)
- Foxp3 expression (MFI) (Foxp3; sgRNA transduced Cas9 Treg cells vs sgNT): reduces Foxp3 expression
- Treg suppressor activity (Treg cells [3]; sgRNA transduced Treg cells vs sgNT): compromised Treg suppressor activity
